Among the data in patent US4623662A, “Antiatherosclerotic ureas and thioureas” (American Cyanamid Company, priority 1985, dated 1986) are inhibition values, retold here.

Read-outs that look alike come from different tables or passages of the source.

This assay concerns the target T1, fatty acyl CoA: cholesterol acyl transferase (ACAT) (Rattus norvegicus, UniProt O70536).
T1 construct: The supernatant, containing the microsomal fraction, served as the source of the cholesterol-esterifying enzyme; from tissue; host or cells: rat adrenals, supernatant of 1,000 x g centrifugation containing the microsomal fraction
T1 sequence (O70536 1-545): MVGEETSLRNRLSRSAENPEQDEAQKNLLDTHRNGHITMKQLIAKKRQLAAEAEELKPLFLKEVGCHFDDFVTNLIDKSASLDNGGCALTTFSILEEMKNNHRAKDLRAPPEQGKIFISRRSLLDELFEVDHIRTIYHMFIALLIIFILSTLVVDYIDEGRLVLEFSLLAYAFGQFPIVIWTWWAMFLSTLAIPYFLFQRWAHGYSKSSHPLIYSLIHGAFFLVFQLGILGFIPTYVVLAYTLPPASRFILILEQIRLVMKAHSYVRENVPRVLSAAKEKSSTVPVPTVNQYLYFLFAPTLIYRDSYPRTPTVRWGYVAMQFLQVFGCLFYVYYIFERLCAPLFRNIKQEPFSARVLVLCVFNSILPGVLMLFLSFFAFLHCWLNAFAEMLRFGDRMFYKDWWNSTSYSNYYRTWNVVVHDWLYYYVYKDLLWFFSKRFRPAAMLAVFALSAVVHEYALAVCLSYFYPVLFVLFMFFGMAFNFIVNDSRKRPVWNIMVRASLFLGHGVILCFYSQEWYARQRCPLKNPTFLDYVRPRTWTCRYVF
The assay can be described thus: Inhibition of fatty acyl CoA:cholesterol acyl transferase (ACAT), rat adrenal enzyme. Format: biochemical. As to the method:
The compounds of the present invention were assayed for two types of biological activity related to their potential use as antiatherosclerotic agents. Compounds were tested in vitro for the ability to inhibit the enzyme fatty acyl CoA: cholesterol acyl transferase (ACAT) and in vivo for serum hypolipidemic activity as meausred by the ability to inhibit lipid absorption in rats.
The compounds were tested for their ability to inhibit ACAT according to the following procedure: rat adrenals were homogenized in 0.2M monobasic potassium phosphate buffer, pH 7.4, and centrifuged at 1,000 times gravity for 15 minutes at 5° C. The supernatant, containing the microsomal fraction, served as the source of the cholesterol-esterifying enzyme, fatty acyl CoA:cholesterol acyl transferase (ACAT). A mixture comprising 50 parts of adrenal supernatant, 10 parts of bovine serum albumin (50 mg/ml), 3 parts of test compound (final concentration 5.2 μg/ml), and 500 parts of buffer was preincubated at 37° C. for 10 minutes. After treatment with 20 parts of oleoyl CoA (^14 C-0.4 μCi), the mixture was incubated at 37° C. for 10 minutes. A control mixture, omitting the test compound, was prepared and treated in the same manner. The lipids from the incubation mixture was extracted into an organic solvent and separated by thin-layer chromatography. The cholesteryl ester fraction was counted in a scintillation counter. This procedure is a modification of that described by Hashimoto, et al., Life Scie., 12 (Part II), 1-12 (1973).
Compounds which produced statistically significant inhibition of the ACAT enzyme are considered to be active.
In addition to the above described test and the results given in terms of percent inhibition, various compounds of this invention were tested by the same procedure at several concentrations. The results of this test are given in Table II in terms of IC50 (μM), that concentration which produced 50% inhibition of the ACAT enzyme.

Where [1] appears, read: rat adrenal ACAT, final concentration 5.2 μg/ml, read-out: % Inhibition.

For orientation: inhibition means the share of the control response that was lost under treatment. Turning to `Cc1ccc(CCN(Cc2ccc3c(c2)OCO3)C(=O)Nc2ccc(C)cc2C)cc1` [1-(3,4-Methylenedioxybenzyl)-1-[2-(4-methylphenyl)ethyl]-3-(2,4-dimethylphenyl)urea], under setting [1], the inhibition at 5.2 µg/mL came out at 41.2%.

`CC(C)(C)CCN(Cc1ccc(Cl)cc1)C(=O)Nc1cccc(C(F)(F)F)c1` [1-(3,3-Dimethylbutyl)-1-(4-chlorobenzyl)-3-(3-trifluoromethylphenyl)urea] displayed an inhibition at 5.2 µg/mL of 90%.

As to `CCCCN(Cc1ccccc1)C(=S)Nc1ccccc1` [1-Benzyl-1-(n-butyl)-3-phenyl thiourea], under setting [1], the inhibition at 5.2 µg/mL came out at 82.4%.

Consider `CCCCCCCN(Cc1ccc(CCCC)cc1)C(=O)Nc1ccc(C(=O)O)cc1` [1-(n-Heptyl)-1-(4-n-butylbenzyl)-3-(4-carboxyphenyl)urea], for which the inhibition at 5.2 µg/mL under setting [1] was 61.8%.

`CCCCN(Cc1ccccc1)C(=O)Nc1cccc(C)c1C` [1-Benzyl-1-( -n-butyl)-3-(2,3-dimethylphenyl)urea]: the inhibition at 5.2 µg/mL under setting [1] amounted to 85.8%.

For `Cc1ccc(NC(=O)N(CCC(c2ccccc2)c2ccccc2)c2ccc3c(c2)OCO3)c(C)c1` [1-(3,4-Methylenedioxyphenyl)-1-(3,3-diphenylpropyl)-3-(2,4-dimethylphenyl)urea], the inhibition at 5.2 µg/mL under setting [1] came to 87.8%.

In the case of `CCCCN(Cc1ccccc1)C(=O)Nc1ccccc1[N+](=O)[O-]` [1-(n-Butyl)-1-benzyl-3-(2-nitrophenyl)urea], the inhibition at 5.2 µg/mL under setting [1] turned out to be 37%.

As for `CCCCN(Cc1ccccc1)C(=O)Nc1cccc(C(F)(F)F)c1` [1-Benzyl-1-( -n-butyl)-3-(3-trifluoromethylphenyl)urea], under setting [1], the inhibition at 5.2 µg/mL turned out to be 85.7%.

Consider `CCCCCCCN(Cc1ccc(CCCC)cc1)C(=O)Nc1cc(Cl)c(Cl)cc1Cl` [1-(n-Heptyl)-1-(4-n-butylbenzyl)-3-(2,4,5-trichlorophenyl)urea], for which, under setting [1], the inhibition at 5.2 µg/mL was found to be 46.5%.

Turning to `CCCCc1ccc(CN(Cc2ccccc2)C(=O)Nc2ccc(Oc3ccccc3)cc2)cc1` [1-Benzyl-1-(4-n-butylbenzyl)-3-(4-phenoxyphenyl)urea], the inhibition at 5.2 µg/mL under setting [1] was 93.5%.

For `CCCCN(Cc1ccc(F)cc1)C(=O)Nc1ccc(C)cc1C` [1-( -n-Butyl)-1-(4-fluorobenzyl)-3-(2,4-dimethylphenyl)urea], the inhibition at 5.2 µg/mL under setting [1] is 80.6%.

Regarding `CCCCN(Cc1ccc(-c2ccccc2)cc1)C(=O)Nc1ccc(C)cc1C` [1-(n-Butyl)-1-(4-phenylbenzyl)-3-(2,4-dimethylphenyl)urea], under setting [1], the inhibition at 5.2 µg/mL is 97.1%.

In the case of `COc1cccc(C(Cc2ccccc2)N(Cc2ccccc2)C(=O)Nc2cccc(C(F)(F)F)c2)c1` (stereo not drawn) [1-Benzyl-1-[1-(3-methoxyphenyl)-2-phenylethyl]-3-(3-trifluoromethylphenyl)urea], the inhibition at 5.2 µg/mL under setting [1] is 88.1%.

`CCCCN(Cc1ccccc1)C(=O)Nc1cccc(Cl)c1OC` [1-Benzyl-1-( -n-butyl)-3-(3-chloro-2-methoxyphenyl)urea]: the inhibition at 5.2 µg/mL under setting [1] was 84.5%.

Consider `CCCCCCCN(C(=O)Nc1cc(C)c(C)cc1C)c1ccco1` [1-(n-Heptyl)-1-(2-furyl)-3-(2,4,5-trimethylphenyl)urea], for which the inhibition at 5.2 µg/mL under setting [1] was 93.8%.

On to `CCCCc1ccc(CN(CCCCCCOS(C)(=O)=O)C(=O)Nc2ccc(Cl)cc2C)cc1` [1-[(4-Butylphenyl)methyl]-3-(4-chloro-2-methylphenyl)-1-[6-[(methylsulfonyl)oxy]hexyl]urea], for which the inhibition at 5.2 µg/mL turned out to be 90%.

As to `Cc1ccc(NC(=O)N(Cc2ccccc2)C(Cc2ccccc2)c2ccc(OCc3ccccc3)cc2)c(C)c1` (stereo not drawn) [1-Benzyl-1-[1-(4-benzyloxyphenyl)-2-phenylethyl]-3-(2,4-dimethylphenyl)urea], under setting [1], the inhibition at 5.2 µg/mL was determined as 93%.

`CCCCN(Cc1ccccc1F)C(=O)Nc1ccc(C)cc1C` [1-( -n-Butyl)-1-(2-fluorobenzyl)-3-(2,4-dimethylphenyl)urea]: under setting [1], the inhibition at 5.2 µg/mL is 83.6%.

Regarding `CCCCN(Cc1ccc(C(F)(F)F)cc1)C(=O)Nc1ccc(C)cc1C` [1-(n-Butyl)-1-(4-trifluoromethylbenzyl)-3-(2,4-dimethylphenyl)urea], the inhibition at 5.2 µg/mL under setting [1] stood at 93.3%.

As to `O=C(Nc1cc(Cl)c(Cl)cc1Cl)N(Cc1ccccc1)C(Cc1ccccc1)c1ccc(OCc2ccccc2)cc1` (stereo not drawn) [1-Benzyl-1-[2-phenyl-1-(4-benzyloxyphenyl)ethyl]-3-(2,4,5-trichlorophenyl)urea], under setting [1], the inhibition at 5.2 µg/mL amounted to 95%.

On to `CCCCc1ccc(CN(CCCCCCO)C(=O)Nc2ccc(C)cc2C)cc1` [1-[(4-Butylphenyl)methyl]-3-(2,4-dimethylphenyl)-1-(6-hydroxyhexyl)urea], for which the inhibition at 5.2 µg/mL under setting [1] is 96.8%.

In turn, `CC(C)(C)CCN(Cc1ccc(Cl)cc1)C(=O)Nc1ccc(F)cc1F` [1-(3,3-Dimethylbutyl)-1-(4-chlorobenzyl)-3-(2,4-difluorophenyl)urea] gave an inhibition at 5.2 µg/mL of 90%.

As for `O=C(Nc1ccc(Cl)cc1C(F)(F)F)N(Cc1ccc(Cl)cc1)Cc1cccc2ccccc12` [1-(4-Chlorobenzyl)-1-(1-naphthylmethyl)-3-(2-trifluoromethyl-4-chlorophenyl)urea], the inhibition at 5.2 µg/mL under setting [1] stood at 83%.

Take `O=C(Nc1ccc(Cl)cc1C(F)(F)F)N(Cc1ccccc1)C(Cc1ccccc1)c1ccc(OCc2ccccc2)cc1` (stereo not drawn) [1-Benzyl-1-[2-phenyl-1-(4-benzyloxyphenyl)ethyl]-3-(2-trifluoromethyl-4-chlorophenyl)urea]: the inhibition at 5.2 µg/mL under setting [1] stood at 92%.

Regarding `COc1cccc(C(Cc2ccccc2)N(Cc2ccccc2)C(=O)Nc2ccc(C)cc2C)c1` (stereo not drawn) [1-Benzyl-1-[1-(3-methoxyphenyl)-2-phenylethyl]-3-(2,4-dimethylphenyl)urea], the inhibition at 5.2 µg/mL under setting [1] turned out to be 86.4%.

Turning to `CCOc1ccc(CCN(Cc2ccc(C)cc2C)C(=O)Nc2ccc(C)cc2C)cc1` [1-[2-(4-Ethoxyphenyl)ethyl]-1-(2,4-dimethylbenzyl)-3-(2,4-dimethylphenyl)urea], the inhibition at 5.2 µg/mL under setting [1] amounted to 34.9%.

Turning to `CCCCN(Cc1ccccc1)C(=O)Nc1cc(Cl)c(NC(=O)CCl)c(Cl)c1` [1-(n-Butyl)-1-(benzyl)-3-[4-(chloroacetamido)-3,5-dichlorophenyl]urea], the inhibition at 5.2 µg/mL under setting [1] is 72.9%.

As to `CCCCN(Cc1ccccc1)C(=O)Nc1ccc(C)c(C)c1` [1-Benzyl-1-( -n-butyl)-3-(3,4-dimethylphenyl)urea], under setting [1], the inhibition at 5.2 µg/mL was found to be 87.1%.

For `CCCCN(CCCc1ccc(OC)c(OC)c1)C(=O)Nc1ccc(C)cc1C` [1-(n-Butyl)-1-[3-(3,4-dimethoxyphenyl)propyl]-3-(2,4-dimethylphenyl)urea], the inhibition at 5.2 µg/mL under setting [1] was determined as 36.4%.

As to `CCCCN(Cc1ccccc1)C(=O)Nc1cc(Cl)ccc1O` [1-(n-Butyl)-1-benzyl-3-(2-hydroxy-5-chlorophenyl)urea], the inhibition at 5.2 µg/mL under setting [1] was found to be 85.6%.

Compound `CCCCCCCN(Cc1ccc(CCCC)cc1)C(=O)Nc1cccc(C(F)(F)F)c1` [1-(n-Heptyl)-1-[4-(n-butyl)benzyl]-3-(3-trifluoromethylphenyl)urea] showed an inhibition at 5.2 µg/mL of 90%.

The compound `CC(C)(C)CCN(Cc1ccc(CC(C)(C)C)cc1)C(=O)Nc1c(F)cc(F)cc1F` [1-[3,3-dimethylbutyl]-1-[[4-(2,2-dimethylpropyl)phenyl]methyl]-3-[2,4,6-trifluorophenyl]urea] registered an inhibition at 5.2 µg/mL of 90%.

For `CCCCN(Cc1ccc(OC)cc1)C(=O)Nc1ccc(C)cc1C` [1-(n-Butyl)-1-(4-methoxybenzyl)-3-(2,4-dimethylphenyl)urea], under setting [1], the inhibition at 5.2 µg/mL stood at 94.2%.
